Laboratory results: patent publication US12569498B2, “Methods and compositions for the prevention and treatment of ischemia reperfusion injury and infection” (CHILDREN'S NATIONAL MEDICAL CENTER, priority 2019, dated 2026)
“Also recorded” adds a separate entry of the source.

Key:
[1] = system: CD45+ immune cells in the torsed testis; assay: Flow cytometry of CD45+ immune cell infiltrate in testis after testicular torsion; assay type: in vivo, CD1 mice; settings: varenicline 1 grm/kg i.p. 1 hour after onset of torsion; 48 hours after reperfusion; P≤0.0001
Description: Unilateral testicular torsion was induced in mature male CD1 mice by rotating the right testicle 720 degrees for 2 hours. Treatment with cytisine or varenicline was initiated one hour prior or one hour after the creation of testicular torsion. Testes were harvested 18 hours and 30 days following reperfusion. The acute inflammatory response was quantified with FACS analysis, […], reduced glutathione levels and quantification of the expression of IRI markers. Long term (30 day) outcomes were assessed by histologic evaluation, quantification of the expression of pro-fibrotic genes and measurement of testicular weight.
Mice underwent testicular torsion as previously described (Lysiak 2001). Briefly, mice were anesthetized with isoflurane over a heating pad. […]
Eighteen hours after reperfusion of the testis in the cytisine group and 48 hours after reperfusion in the varenicline group, bilateral testes were harvested, homogenized and digested with digestion solution containing 0.5% FBS, 20 mM HEPES, RPMI Medium, 0.057 U/ml DNase I, 1 mg/ml collagenase b. Cells were washed, counted with a hemocytometer and 1 million then diluted to 1 million cells per mL. […] For each sample 300,000 live cells were counted using BD FACSCalibur (BD Biosciences, San Jose, CA) and analyzed with FlowJo 9.0 software (TreeStar, Ashland, OR).

[2] = system: oxidative stress within the testis; assay: Myeloperoxidase activity and reduced glutathione levels in testis after testicular torsion; assay type: in vivo, CD1 mice; settings: varenicline 1 hour after onset of torsion, vs untreated controls; for reduced glutathione (GSH) levels in testis: 48 hours following reperfusion, P≤0.0742
Description: Mice underwent testicular torsion as previously described (Lysiak 2001). Briefly, mice were anesthetized with isoflurane over a heating pad. The right testis was delivered through a low scrotal incision and rotated counterclockwise 720 degrees to induce ischemia for 2 hours. […] All animals were injected with long-acting buprenorphine (0.1 mg/kg) for long-term pain control prior to being recovered from anesthesia. […] Mice kept for 30 days after surgery were weighed on a weekly basis.
(§1) Cytisine (Sigma-Aldrich, St. Louis, MO) was administered intraperitoneally at a dose of 0.1 μg/gram either 1 hour before torsion or 1 hour after torsion (1 hour prior to detorsion). Varenicline ([…]) was administered as an intraperitoneal injection one hour after the onset of torsion and then continued every 12 hours for a total of 4 doses.
Tissues were harvested and stored at −80° C. until use. Glutathione reductase activity was measured by use of glutathione reductase assay Kit (Sigma-Aldrich, St. Louis, MO). Testis tissue was homogenized in 5% sulfosalicylic Acid (SSA) solution. Samples were then centrifuged and supernatant was reserved. Supernatants were added to a reaction mixture containing 95 mM potassium phosphate buffer, pH 7.0, 0.95 mM EDTA, 0.038 mg/mL NADPH, 0.031 mg/mL DTNB, 0.115 units/mL glutathione reductase, and 0.24% SSA. Absorbance at 412 nm was recorded. Glutathione results were expressed as nm GSH per mL sample.
Following an ischemic event, the initial inflammatory response is characterized by an increase in oxidative stress and production of reactive oxygen species. In order to determine the effect of cytisine treatment on the level of reactive oxygen species (ROS) following testicular torsion, testicular levels of myeloperoxidase (MPO), a marker of neutrophil activation, and reduced glutathione (GSH) levels (an indirect measure of oxidative stress within the testis) were measured.

[3] = system: NFKB targets (TLR4, NLRP3, Trim63, Fbxo32); assay: RT-PCR of downstream NFKB target genes after testicular torsion; assay type: in vivo, CD1 mice; settings: testis, 18 hours following testicular torsion
Description: Mice underwent testicular torsion as previously described (Lysiak 2001). Briefly, mice were anesthetized with isoflurane over a heating pad. The right testis was delivered through a low scrotal incision and rotated counterclockwise 720 degrees to induce ischemia for 2 hours. […] All animals were injected with long-acting buprenorphine (0.1 mg/kg) for long-term pain control prior to being recovered from anesthesia. Mice were euthanized either 18 hours or 30 days following torsion. Mice kept for 30 days after surgery were weighed on a weekly basis.
as §1
RNA was isolated from testis tissue using RNEasy mini kit (Qiagen, Hilden, Germany) using the manufacturer's protocol. RNA concentration was measured with Nanodrop 8000 (Thermo Scientific, Waltham, MA). cDNA was synthesized using Superscript First-Strand Synthesis system for RT-PCR (Invitrogen, Carlsbad, CA) on a GeneAmp PCR System 9700 (Applied Biosystems, Foster City, CA) Real-Real-time PCR was performed using QuantStudio 7 Flex (Applied Biosystems, Foster City, CA). Software Quantstudio Real-Time PCR Software (Thermo Fisher Scientific, Waltham, MA). TaqMan Gene Expression Assays (Applied Biosystems, Foster City, CA). Standard TaqMan primers were used for Col1, Col3, Vim, SMA.
NFKB signaling results in the upregulation of several downstream targets, which propagate the inflammatory cascade. To determine if varenicline administration reduced activation of the NFKB axis, quantitative PCR of established downstream NFKB targets was performed.

[4] = Renal scar formation and trichrome collagen quantification after acute pyelonephritis; assay type: in vivo, C3H/HeOuJ mice
Description: To initiate pyelonephritis, the bladder was catheterized with a 24-gauge angiocatheter and a total volume of 100 μL of a phosphate-buffered saline containing […] colony forming units (CFU) of CFT073 uropathogenic Escherichia coli (UPEC) was then instilled.
Tissues were preserved in formalin for 72 hours then stored in ethanol. Sections were cut to a 5 μm thickness and stained with H&E or Masson trichrome. Photographs were obtained at 20× resolution with Olympus VS120 virtual slide microscope system. The images were then analyzed with ImageJ Fiji software in order to quantify collagen deposition as previously described (Chen 2017). As collagen deposition would be expected as long-term sequelae of IRI, the trichrome stains of the long-term specimen were examined. All artifacts from the staining process as well as gross collecting system were cropped from these images prior to analysis. A color deconvolution plugin was used to separate the trichrome images into the separate colors. Analysis was performed based upon the percentage of deposition of collagen in the green image compared to the overall area of the kidneys.
Tissues harvested 21 days following completion of antibiotic therapy were subjected to trichome staining to assess for global collagen deposition. After removing artifacts (to ensure only parenchyma was included in the analysis), a color deconvolution plugin was used for ImageJ to divide the images into the respective three colors of the trichrome stain. A threshold was set and collagen was quantified as a percentage of green color in respect to the area of the entire kidney (FIG. 13).

α4β2nAChR = α4β2nAChR (Homo sapiens, UniProt P17787+P43681); settings: systemic concentrations found with routine oral dosing in humans (Campling 2013); cited from earlier work
Sequence of α4β2nAChR (P43681 29-627 limits assumed): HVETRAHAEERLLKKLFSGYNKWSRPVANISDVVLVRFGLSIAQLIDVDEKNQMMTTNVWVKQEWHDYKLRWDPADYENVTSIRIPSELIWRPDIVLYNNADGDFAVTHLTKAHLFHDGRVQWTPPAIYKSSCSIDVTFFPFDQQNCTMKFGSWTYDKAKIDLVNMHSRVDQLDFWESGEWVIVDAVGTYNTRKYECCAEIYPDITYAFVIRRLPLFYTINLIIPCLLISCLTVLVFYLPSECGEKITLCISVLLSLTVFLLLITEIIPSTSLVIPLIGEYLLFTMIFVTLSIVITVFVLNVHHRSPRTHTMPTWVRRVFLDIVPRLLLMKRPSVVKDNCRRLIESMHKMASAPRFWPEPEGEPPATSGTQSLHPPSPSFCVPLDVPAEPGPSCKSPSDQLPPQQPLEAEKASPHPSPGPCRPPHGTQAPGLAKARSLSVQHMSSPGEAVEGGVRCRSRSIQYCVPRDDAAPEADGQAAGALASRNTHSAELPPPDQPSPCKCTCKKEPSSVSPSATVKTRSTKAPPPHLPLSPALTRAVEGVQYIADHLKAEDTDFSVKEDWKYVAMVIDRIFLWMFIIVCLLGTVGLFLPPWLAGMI
Sequence of α4β2nAChR (P17787 26-502): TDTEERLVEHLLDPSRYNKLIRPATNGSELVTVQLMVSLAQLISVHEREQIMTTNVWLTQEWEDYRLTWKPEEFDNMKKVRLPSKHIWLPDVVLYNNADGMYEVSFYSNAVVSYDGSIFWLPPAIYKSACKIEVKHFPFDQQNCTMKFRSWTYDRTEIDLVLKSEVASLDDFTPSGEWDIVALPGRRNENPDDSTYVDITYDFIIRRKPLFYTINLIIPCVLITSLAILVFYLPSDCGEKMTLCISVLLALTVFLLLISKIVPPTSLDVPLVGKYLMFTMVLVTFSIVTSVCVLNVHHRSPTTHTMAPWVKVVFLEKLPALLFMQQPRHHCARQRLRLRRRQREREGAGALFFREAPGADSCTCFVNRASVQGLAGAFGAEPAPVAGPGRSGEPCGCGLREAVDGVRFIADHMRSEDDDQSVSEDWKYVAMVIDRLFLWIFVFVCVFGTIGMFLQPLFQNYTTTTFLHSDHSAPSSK

[5] = mice (Obach 2006); cited from earlier work

c1cnc2cc3c(cc2n1)C1CNCC3C1 [varenicline, 7,8,9, 10-tetrahydro-6, 10-methano-6H-pyrazino[2,3-h][3]benzazepine]
acute immune cell (leukocyte) infiltrate in testis [1]: decreased leukocyte infiltrate; also recorded: reduction in the acute immune cell infiltrate
reduced glutathione (GSH) levels in testis [2]: increased levels of reduced glutathione (GSH)
reduced glutathione (GSH) levels in testis ([2]; listed as Varenicline): preserved reduced glutathione levels
myeloperoxidase (MPO) activity in testis ([2]; P≤0.0013): decreased levels of MPO activity; also recorded: significantly decreased
expression of Fbxo32 ([3]; p<0.0001): significantly decreased the expression
expression of TLR4 ([3]; p<0.01): significantly decreased the expression
expression of NLRP3 ([3]; p<0.05): significantly decreased the expression
expression of Trim63 ([3]; p≤0.034): significantly decreased the expression
collagen deposition in the kidneys (percentage of green pigment per area of entire kidney) ([4]; 21 days following completion of antibiotic therapy, varenicline plus ceftriaxone vs ceftriaxone alone, p=0.001): significantly lower amount of collagen deposition; also recorded: long-term decrease in collagen deposition
incidence of renal scar formation and renal atrophy ([4]; 30 days following acute pyelonephritis, preliminary results): decreased
α4β2nAChR agonism (α4β2nAChR): strong α4β2nAChR and α7nAChR agonist
half-life [5]: 1.4 h
